# Measurements published in the NIST ThermoML archive (doi:10.1016/j.fluid.2015.04.021).
# ± gives the expanded uncertainty stated by the source.
# Assay: cn = amount concentration of the nth substance listed, in mol/dm3
# Details: 101.3 kPa, Liquid; for viscosity: Falling or rolling sphere viscometry; for mass density: Vibrating tube method
compound,measurement,setting,value
O=C([O-])[C@@H]1CCCN1.[K+] [potassium L-prolinate] + O,viscosity,"298.15 K, c1 = 0.5001",1.105 ± 0.18 mPa·s
same,viscosity,"298.15 K, c1 = 1",1.38 ± 0.22 mPa·s
same,viscosity,"298.15 K, c1 = 1.5",1.861 ± 0.3 mPa·s
same,viscosity,"298.15 K, c1 = 2",2.293 ± 0.37 mPa·s
same,viscosity,"298.15 K, c1 = 2.5",3.181 ± 0.51 mPa·s
same,viscosity,"298.15 K, c1 = 3",4.054 ± 0.65 mPa·s
same,mass density,"298.15 K, c1 = 0.5001",1026.6 ± 8 kg/m3
same,mass density,"298.15 K, c1 = 1",1054.7 ± 8 kg/m3
same,mass density,"298.15 K, c1 = 1.5",1088 ± 8 kg/m3
same,mass density,"298.15 K, c1 = 2",1111.4 ± 8 kg/m3
same,mass density,"298.15 K, c1 = 2.5",1145.8 ± 8 kg/m3
same,mass density,"298.15 K, c1 = 3",1166.9 ± 8 kg/m3
same,viscosity,"303.15 K, c1 = 0.5001",0.9857 ± 0.16 mPa·s
same,viscosity,"303.15 K, c1 = 1",1.232 ± 0.2 mPa·s
same,viscosity,"303.15 K, c1 = 1.5",1.642 ± 0.26 mPa·s
same,viscosity,"303.15 K, c1 = 2",2.028 ± 0.33 mPa·s
same,viscosity,"303.15 K, c1 = 2.5",2.755 ± 0.44 mPa·s
same,viscosity,"303.15 K, c1 = 3",3.491 ± 0.56 mPa·s
same,mass density,"303.15 K, c1 = 0.5001",1025.2 ± 8 kg/m3
same,mass density,"303.15 K, c1 = 1",1053 ± 8 kg/m3
same,mass density,"303.15 K, c1 = 1.5",1086.4 ± 8 kg/m3
same,mass density,"303.15 K, c1 = 2",1109.2 ± 8 kg/m3
same,mass density,"303.15 K, c1 = 2.5",1143.2 ± 8 kg/m3
same,mass density,"303.15 K, c1 = 3",1164.1 ± 8 kg/m3
same,viscosity,"308.15 K, c1 = 0.5001",0.8913 ± 0.14 mPa·s
same,viscosity,"308.15 K, c1 = 1",1.103 ± 0.18 mPa·s
same,viscosity,"308.15 K, c1 = 1.5",1.465 ± 0.23 mPa·s
same,viscosity,"308.15 K, c1 = 2",1.794 ± 0.29 mPa·s
same,viscosity,"308.15 K, c1 = 2.5",2.409 ± 0.39 mPa·s
same,viscosity,"308.15 K, c1 = 3",3.038 ± 0.49 mPa·s
same,mass density,"308.15 K, c1 = 0.5001",1023.5 ± 8 kg/m3
same,mass density,"308.15 K, c1 = 1",1051 ± 8 kg/m3
same,mass density,"308.15 K, c1 = 1.5",1084.5 ± 8 kg/m3
same,mass density,"308.15 K, c1 = 2",1107 ± 8 kg/m3
same,mass density,"308.15 K, c1 = 2.5",1140.6 ± 8 kg/m3
same,mass density,"308.15 K, c1 = 3",1161.3 ± 8 kg/m3
same,viscosity,"313.15 K, c1 = 0.5001",0.8086 ± 0.13 mPa·s
same,viscosity,"313.15 K, c1 = 1",0.9949 ± 0.16 mPa·s
same,viscosity,"313.15 K, c1 = 1.5",1.31 ± 0.21 mPa·s
same,viscosity,"313.15 K, c1 = 2",1.601 ± 0.26 mPa·s
same,viscosity,"313.15 K, c1 = 2.5",2.136 ± 0.34 mPa·s
same,viscosity,"313.15 K, c1 = 3",2.662 ± 0.43 mPa·s
same,mass density,"313.15 K, c1 = 0.5001",1021.6 ± 8 kg/m3
same,mass density,"313.15 K, c1 = 1",1049 ± 8 kg/m3
same,mass density,"313.15 K, c1 = 1.5",1082.2 ± 8 kg/m3
same,mass density,"313.15 K, c1 = 2",1104.7 ± 8 kg/m3
same,mass density,"313.15 K, c1 = 2.5",1137.9 ± 8 kg/m3
same,mass density,"313.15 K, c1 = 3",1158.4 ± 8 kg/m3
same,viscosity,"318.15 K, c1 = 0.5001",0.7351 ± 0.12 mPa·s
same,viscosity,"318.15 K, c1 = 1",0.9035 ± 0.14 mPa·s
same,viscosity,"318.15 K, c1 = 1.5",1.2 ± 0.19 mPa·s
same,viscosity,"318.15 K, c1 = 2",1.439 ± 0.23 mPa·s
same,viscosity,"318.15 K, c1 = 2.5",1.903 ± 0.31 mPa·s
same,viscosity,"318.15 K, c1 = 3",2.354 ± 0.38 mPa·s
same,mass density,"318.15 K, c1 = 0.5001",1019.6 ± 8 kg/m3
same,mass density,"318.15 K, c1 = 1",1046.8 ± 8 kg/m3
same,mass density,"318.15 K, c1 = 1.5",1081.2 ± 8 kg/m3
same,mass density,"318.15 K, c1 = 2",1102.5 ± 8 kg/m3
same,mass density,"318.15 K, c1 = 2.5",1135.1 ± 8 kg/m3
same,mass density,"318.15 K, c1 = 3",1155.5 ± 8 kg/m3
same,viscosity,"323.15 K, c1 = 0.5001",0.6741 ± 0.11 mPa·s
same,viscosity,"323.15 K, c1 = 1",0.8251 ± 0.13 mPa·s
same,viscosity,"323.15 K, c1 = 1.5",1.085 ± 0.17 mPa·s
same,viscosity,"323.15 K, c1 = 2",1.296 ± 0.21 mPa·s
same,viscosity,"323.15 K, c1 = 2.5",1.707 ± 0.27 mPa·s
same,viscosity,"323.15 K, c1 = 3",2.102 ± 0.34 mPa·s
same,mass density,"323.15 K, c1 = 0.5001",1017.6 ± 8 kg/m3
same,mass density,"323.15 K, c1 = 1",1044.5 ± 8 kg/m3
same,mass density,"323.15 K, c1 = 1.5",1078.8 ± 8 kg/m3
same,mass density,"323.15 K, c1 = 2",1100.4 ± 8 kg/m3
same,mass density,"323.15 K, c1 = 2.5",1132.2 ± 8 kg/m3
same,mass density,"323.15 K, c1 = 3",1152.5 ± 8 kg/m3
same,viscosity,"328.15 K, c1 = 0.5001",0.6219 ± 0.1 mPa·s
same,viscosity,"328.15 K, c1 = 1",0.7569 ± 0.12 mPa·s
same,viscosity,"328.15 K, c1 = 1.5",0.9922 ± 0.16 mPa·s
same,viscosity,"328.15 K, c1 = 2",1.196 ± 0.19 mPa·s
same,viscosity,"328.15 K, c1 = 2.5",1.541 ± 0.25 mPa·s
same,viscosity,"328.15 K, c1 = 3",1.887 ± 0.3 mPa·s
same,mass density,"328.15 K, c1 = 0.5001",1015.2 ± 8 kg/m3
same,mass density,"328.15 K, c1 = 1",1042.2 ± 8 kg/m3
same,mass density,"328.15 K, c1 = 1.5",1076.6 ± 8 kg/m3
same,mass density,"328.15 K, c1 = 2",1098.5 ± 8 kg/m3
same,mass density,"328.15 K, c1 = 2.5",1129.2 ± 8 kg/m3
same,mass density,"328.15 K, c1 = 3",1149.4 ± 8 kg/m3
same,viscosity,"333.15 K, c1 = 0.5001",0.5764 ± 0.092 mPa·s
same,viscosity,"333.15 K, c1 = 1",0.7002 ± 0.11 mPa·s
same,viscosity,"333.15 K, c1 = 1.5",0.9175 ± 0.15 mPa·s
same,viscosity,"333.15 K, c1 = 2",1.093 ± 0.18 mPa·s
same,viscosity,"333.15 K, c1 = 2.5",1.4 ± 0.22 mPa·s
same,viscosity,"333.15 K, c1 = 3",1.704 ± 0.27 mPa·s
same,mass density,"333.15 K, c1 = 0.5001",1012.8 ± 8 kg/m3
same,mass density,"333.15 K, c1 = 1",1039.9 ± 8 kg/m3
same,mass density,"333.15 K, c1 = 1.5",1074.7 ± 8 kg/m3
same,mass density,"333.15 K, c1 = 2",1095.8 ± 8 kg/m3
same,mass density,"333.15 K, c1 = 2.5",1126.2 ± 8 kg/m3
same,mass density,"333.15 K, c1 = 3",1146.3 ± 8 kg/m3
same,viscosity,"338.15 K, c1 = 0.5001",0.5373 ± 0.086 mPa·s
same,viscosity,"338.15 K, c1 = 1",0.6493 ± 0.1 mPa·s
same,viscosity,"338.15 K, c1 = 1.5",0.8552 ± 0.14 mPa·s
same,viscosity,"338.15 K, c1 = 2",1.009 ± 0.16 mPa·s
same,viscosity,"338.15 K, c1 = 2.5",1.278 ± 0.2 mPa·s
same,viscosity,"338.15 K, c1 = 3",1.549 ± 0.25 mPa·s
same,mass density,"338.15 K, c1 = 0.5001",1010.4 ± 8 kg/m3
same,mass density,"338.15 K, c1 = 1",1037.4 ± 8 kg/m3
same,mass density,"338.15 K, c1 = 1.5",1073.7 ± 8 kg/m3
same,mass density,"338.15 K, c1 = 2",1093.6 ± 8 kg/m3
same,mass density,"338.15 K, c1 = 2.5",1123 ± 8 kg/m3
same,mass density,"338.15 K, c1 = 3",1143.1 ± 8 kg/m3
same,viscosity,"343.15 K, c1 = 0.5001",0.5039 ± 0.081 mPa·s
same,viscosity,"343.15 K, c1 = 1",0.608 ± 0.097 mPa·s
same,viscosity,"343.15 K, c1 = 1.5",0.7966 ± 0.13 mPa·s
same,viscosity,"343.15 K, c1 = 2",0.9587 ± 0.15 mPa·s
same,viscosity,"343.15 K, c1 = 2.5",1.173 ± 0.19 mPa·s
same,viscosity,"343.15 K, c1 = 3",1.414 ± 0.23 mPa·s
same,mass density,"343.15 K, c1 = 0.5001",1008 ± 8 kg/m3
same,mass density,"343.15 K, c1 = 1",1035.5 ± 8 kg/m3
same,mass density,"343.15 K, c1 = 1.5",1071.9 ± 8 kg/m3
same,mass density,"343.15 K, c1 = 2",1094.3 ± 8 kg/m3
same,mass density,"343.15 K, c1 = 2.5",1119.9 ± 8 kg/m3
same,mass density,"343.15 K, c1 = 3",1139.8 ± 8 kg/m3
same,viscosity,"348.15 K, c1 = 0.5001",0.4733 ± 0.076 mPa·s
same,viscosity,"348.15 K, c1 = 1",0.5792 ± 0.093 mPa·s
same,viscosity,"348.15 K, c1 = 1.5",0.7486 ± 0.12 mPa·s
same,viscosity,"348.15 K, c1 = 2",0.8972 ± 0.14 mPa·s
same,viscosity,"348.15 K, c1 = 2.5",1.082 ± 0.17 mPa·s
same,viscosity,"348.15 K, c1 = 3",1.299 ± 0.21 mPa·s
same,mass density,"348.15 K, c1 = 0.5001",1005.6 ± 8 kg/m3
same,mass density,"348.15 K, c1 = 1",1035.7 ± 8 kg/m3
same,mass density,"348.15 K, c1 = 1.5",1070.5 ± 8 kg/m3
same,mass density,"348.15 K, c1 = 2",1092.4 ± 8 kg/m3
same,mass density,"348.15 K, c1 = 2.5",1116.6 ± 8 kg/m3
same,mass density,"348.15 K, c1 = 3",1136.5 ± 8 kg/m3
